Read-outs that look alike come from different tables or passages of the source.
Key:
[1] = biological target: T1, IKr (rapidly activating delayed rectifier K^+ current) (Cavia porcellus, UniProt O08703); assay: Voltage-clamp measurement of IKr in guinea pig ventricular myocytes; format: cell-based; conditions: @ 3 μM; read-out: % Block (Guinea Pig Ventricle) IKr
T1 construct: Guinea pig ventricular myocytes were isolated; from tissue; host or cells: isolated guinea pig ventricular myocytes
T1 sequence (O08703 1-1294): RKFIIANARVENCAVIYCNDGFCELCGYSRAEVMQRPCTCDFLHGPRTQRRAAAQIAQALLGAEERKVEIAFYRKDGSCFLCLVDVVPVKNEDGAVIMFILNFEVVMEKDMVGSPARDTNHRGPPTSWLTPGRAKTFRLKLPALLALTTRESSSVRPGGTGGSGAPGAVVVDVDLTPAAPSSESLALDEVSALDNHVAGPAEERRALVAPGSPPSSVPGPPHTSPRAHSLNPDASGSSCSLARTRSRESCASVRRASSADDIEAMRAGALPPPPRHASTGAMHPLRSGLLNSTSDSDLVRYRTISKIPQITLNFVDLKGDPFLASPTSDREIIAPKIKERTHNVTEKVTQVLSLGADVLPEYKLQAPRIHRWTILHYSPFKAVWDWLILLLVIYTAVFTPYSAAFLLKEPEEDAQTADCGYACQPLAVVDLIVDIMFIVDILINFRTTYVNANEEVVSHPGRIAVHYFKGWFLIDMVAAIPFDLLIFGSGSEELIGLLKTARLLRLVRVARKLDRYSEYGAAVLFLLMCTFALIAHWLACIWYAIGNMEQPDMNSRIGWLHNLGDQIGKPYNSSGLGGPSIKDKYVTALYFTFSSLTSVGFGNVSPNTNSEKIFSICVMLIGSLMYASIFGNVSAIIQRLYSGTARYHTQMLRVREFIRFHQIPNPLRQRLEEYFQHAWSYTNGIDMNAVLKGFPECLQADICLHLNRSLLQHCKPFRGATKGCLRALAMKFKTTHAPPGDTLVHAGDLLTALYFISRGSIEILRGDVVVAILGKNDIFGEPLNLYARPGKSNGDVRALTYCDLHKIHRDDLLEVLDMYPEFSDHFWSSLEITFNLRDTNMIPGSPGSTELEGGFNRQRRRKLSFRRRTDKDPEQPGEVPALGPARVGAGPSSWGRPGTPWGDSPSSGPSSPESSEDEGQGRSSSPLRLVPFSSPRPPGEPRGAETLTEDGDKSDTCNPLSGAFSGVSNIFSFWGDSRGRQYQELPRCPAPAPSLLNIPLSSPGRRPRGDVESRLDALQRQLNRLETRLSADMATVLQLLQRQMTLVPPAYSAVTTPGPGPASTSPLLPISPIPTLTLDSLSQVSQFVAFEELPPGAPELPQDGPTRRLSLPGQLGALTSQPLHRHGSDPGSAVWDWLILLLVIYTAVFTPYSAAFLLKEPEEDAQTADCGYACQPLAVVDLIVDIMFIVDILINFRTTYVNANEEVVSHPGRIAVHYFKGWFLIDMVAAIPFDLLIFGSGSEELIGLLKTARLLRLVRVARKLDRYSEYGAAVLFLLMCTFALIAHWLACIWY
Method: (§1) Guinea pig ventricular myocytes were isolated using a modification of the procedure described by Mitra et al., Am. J. Physiol. 249:H1056-60 (1985). Excised hearts were perfused through the aorta (retrograde fashion) at a rate of 10 ml/min with oxygenated, warmed (37° C.) solutions described below. The heart was initially perfused for 7 minutes with a Tyrode's solution containing, (in mM): 132 NaCl, 4 KCl, 1.2 MgCl2, 10 HEPES, 5 glucose, pH=7.2. The heart was then perfused with the same nominally Ca^2+ -free solution containing 150 units/ml Type II collagenase (Worthington) and 0.5 units/ml Type XIV protease (Sigma) for 8 minutes. This perfusate was followed by a Tyrode's solution containing 0.2 mM CaCl2 (without enzymes) for 5 minutes. The digested ventricles were cut into small pieces and gently shaken until cells were visibly dispersed. The cells were stored at room temperature until use, within 8 hours after isolation.
(§2) The suction microelectrode technique described by Giles, W. R. and Shibata, E. F., "Voltage clamp of bull-frog cardiac pacemaker cells: a quantitative analysis of potassium currents", J. Physiol. 368:265-292 (1985) was used to voltage clamp the cells. Microelectrodes were made by using a two stage puller from square bore (1.0 mm o.d.) borosilicate capillary tubing. Pipettes were filled with 0.5 M K gluconate, 25 mM KCl and 5 mM K2 ATP. The electrodes had resistances of 3 to 7 M.OMEGA. when filled with this solution. After establishing whole-cell recording mode, negative pressure was maintained on the pipette using a 1 ml gas-tight syringe attached via air tight tubing to the suction port of the microelectrode holder. This minimized dialysis of the cell with the pipette solution.
(§3) To record K^+ currents, the cells were bathed in a Ca^2+ -free Tyrode's solution containing […]. […] To record Ca^2+ currents, the cells were bathed in Tyrode's solution containing 1.8 mM Ca^2+ without nisoldipine. The cell chamber was superfused with solutions at a rate of 1-2 ml/minute, while maintaining the temperature at 35±1° C. A List EPC-7 clamp amplifier was used to voltage clamp the isolated cells. […] (Sanguinetti M. C. and Jurkiewicz, N. K., "Two components of cardiac delayed rectifier K^+ current: Differential sensitivity to block by Class III antiarrhythmic agents", J. Gen Physiol 1990; 96:194-214.) Data was analyzed as % block from control membrane currents.
(§4) Nisoldipine was prepared as a 4 mM stock solution in polyethylene glycol 200. […] At the final concentrations used neither polyethylene glycol 200 nor dimethyl sulfoxide had any effect on any of the measured membrane currents.
(§5) Selectivity for block of cardiac K^+ channels, IK1, IKr, and IKs was determined as previously described in guinea pig ventricular myocytes (U.S. Pat. No. 5,428,031).

[2] = biological target: T2, IKs (slowly activating delayed rectifier K^+ current) (Cavia porcellus, UniProt O70344); assay: Voltage-clamp measurement of IKs in guinea pig ventricular myocytes; format: cell-based; conditions: @ 3 μM; read-out: % Block (Guinea Pig Ventricle) IKs
T2 construct: Guinea pig ventricular myocytes were isolated; from tissue; host or cells: isolated guinea pig ventricular myocytes
T2 sequence (O70344 whole entry): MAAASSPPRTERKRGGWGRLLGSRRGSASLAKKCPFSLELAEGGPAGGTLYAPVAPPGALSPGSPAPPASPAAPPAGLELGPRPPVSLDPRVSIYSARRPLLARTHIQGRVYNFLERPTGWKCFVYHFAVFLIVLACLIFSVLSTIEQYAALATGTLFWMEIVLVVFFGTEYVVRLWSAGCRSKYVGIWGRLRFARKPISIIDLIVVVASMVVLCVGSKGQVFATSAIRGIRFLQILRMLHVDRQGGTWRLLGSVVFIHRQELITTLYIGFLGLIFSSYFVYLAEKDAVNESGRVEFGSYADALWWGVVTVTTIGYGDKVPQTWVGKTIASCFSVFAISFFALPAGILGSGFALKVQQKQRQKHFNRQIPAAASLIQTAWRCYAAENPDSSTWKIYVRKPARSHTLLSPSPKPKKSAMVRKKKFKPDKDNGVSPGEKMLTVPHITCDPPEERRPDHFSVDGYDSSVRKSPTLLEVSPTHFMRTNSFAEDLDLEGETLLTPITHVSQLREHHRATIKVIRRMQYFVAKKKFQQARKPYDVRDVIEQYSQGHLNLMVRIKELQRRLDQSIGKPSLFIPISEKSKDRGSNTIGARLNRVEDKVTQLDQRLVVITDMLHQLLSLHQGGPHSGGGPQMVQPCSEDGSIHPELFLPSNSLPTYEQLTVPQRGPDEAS
T2 sequence (Q60409 whole entry partner): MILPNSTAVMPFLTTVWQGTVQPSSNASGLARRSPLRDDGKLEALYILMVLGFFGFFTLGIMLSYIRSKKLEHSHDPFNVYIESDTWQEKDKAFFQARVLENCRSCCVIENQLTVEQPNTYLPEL
Method: as §1, §2, §3, §4, §5

[3] = tested on: IK1 (inward rectifier K^+ current); assay: Voltage-clamp measurement of IK1 in guinea pig ventricular myocytes; format: cell-based; conditions: @ 3 μM
Method: as §1, §2, §3, §4, §5

Method for atrial flutter: In this model, atrial flutter was induced following a Y-shaped surgical lesion comprised of an intercaval incision and a connecting incision across the right atrium. […] Bipolar electrodes also were sutured to the left ventricle for measurement of ventricular excitation threshold (VET) and ventricular relative (VRRP at 2× VET) and effective refractory periods (VERP at 10×VET). The following cardiac electrophysiologic parameters also were measured before test agent administration and at the termination of the study: AH interval, an index of AV nodal conduction; HV interval, an index of His-ventricular conduction time; P-A interval, an index of intra-atrial conduction; and H-EG interval, an index of ventricular conduction; and paced ECG QT interval. AV nodal functional refractory period (AVNFRP) and SA conduction time (SACT) were determined by the introduction of atrial extrastimuli during sinus rhythm, and the monitoring of ventricular response. Electrocardiographic intervals were determined during sinus rhythm; the rate-corrected ECG QTc interval was calculated as: QTc=QT (msec)/√R-R (sec).
Sustained atrial flutter was initiated in three dogs by electrical burst pacing (6-20 Hz) of the atria; atrial rates ranged from 440-530 cycles/min.

CC1CCC(C(C)C)C(P(=O)(c2ccccc2)c2ccccc2)C1 (centres unmarked) [Compound D, (2-Isopropyl-5-methylcyclohexyl)diphenylphosphine oxide]
inhibition at 3 µM [1]: 3% | inhibition at 3 µM [2]: 25% | % Block (Guinea Pig Ventricle) IK1 [3]: 15% | effect on ventricular function (atrial flutter; dog, in vivo): no indication of effect on ventricular function | time to termination of atrial arrhythmia after test agent administration (atrial flutter; i.v. bolus 1 mg/kg (three dogs) or 10 mg/kg (fourth dog)): 10 to 120 s | atrial rate during atrial flutter (atrial flutter; i.v. bolus 1 mg/kg (three dogs) or 10 mg/kg (fourth dog), initial rates 450-560 cycles/min): slowed atrial rate | termination of atrial arrhythmia (atrial flutter; i.v. bolus 1 mg/kg, in three of four dogs): terminated the atrial arrhythmia | termination of atrial arrhythmia (atrial flutter; i.v. bolus 10 mg/kg, in the fourth of four dogs): terminated the atrial arrhythmia
